The values below come from US20210186950A1, “COMBINATIONS COMPRISING TROPIFEXOR AND CENICRIVIROC” (NOVARTIS AG, priority 2018, published 2021).

Data set [1] relates to FXR. The data set can be described thus: FGF19 biomarker in single and multiple dose studies of TRX. In kind it is in vivo, human. Particulars: single doses 10-3000 μg or multiple daily doses 10-100 μg; 69 subjects. How it is done:
(§1) A total of 69 subjects have received TRX at doses ranging from 10 μg to 3000 μg in single or 10 μg to 100 μg in multiple daily doses.

Data set [2] in a line: Safety in single dose studies of TRX. Particulars: single dose studies up to 3000 μg. In kind it is in vivo, human. The protocol:
as §1

Data set [3] is described as follows: Drug-drug interaction study between TRX and CVC in healthy and healthy but overweight to obese subjects (plasma pharmacokinetics, tolerability). In kind it is in vivo, human. Particulars: for AUC(0-t) / Cmax: human, plasma, oral, TRX 60 μg. An excerpt:
This is a single site, randomized, parallel group, 3 arm double-blind, double-dummy study to evaluate the potential drug-drug interaction between TRX and CVC in healthy and healthy but overweight to obese subjects. Healthy and healthy but overweight to obese subjects with body mass index (BMI) up to 32, are included to give a better representation of the NASH patients that will be studied in future clinical studies. The subjects were randomized into 3 arms a) TRX monotherapy, b) CVC monotherapy, and c) TRX and CVC as a combination.
A total of 42 subjects were randomized into the 3 parallel arms receiving single daily doses of TRX, CVC, and TRX+CVC combination.
This study examined doses of 60 μg of tropifexor and 150 mg of CVC given with a standard breakfast.
Pharmacokinetics: Sample collections included time points up to 24 hours after the first (Day 1) and the last (Day 14) doses to establish the AUC0-24 h,Cmax AUC0-24 h,ss and Cmax,ss for TRX, CVC, and TRX+CVC plasma concentration-time profiles.

Data set [4] in a line: 1-month combination toxicity study with CVC and TRX. In kind it is in vivo. The note with it: CVC 30 mg/kg/day alone. How it is done:
A 1-month combination toxicity study was performed with cenicriviroc (CVC) (30 mg/kg/day) and tropifexor (TRX) (0.03 mg/kg or 1 mg/kg/day).

The nature of data set [5]: Phase I studies of CVC, tolerability. In kind it is in vivo, human. Particulars: single doses up to 900 mg; multiple daily doses up to 400 mg for 10 days.
Data set [6] has as its system NASH with liver fibrosis. The note with it: cited from earlier work.
For data set [7], the system named is nonalcoholic steatohepatitis. Particulars: cited from earlier work.
Where [8] appears, read: Day 14, TRX 60 μg + CVC 150 mg daily.
Where [9] appears, read: Day 1, dosed alone, CVC 150 mg, with standard breakfast, read-out: area under the concentration-time curve (AUC0-24 h).
Setting [10] is: Day 1, dosed alone, CVC 150 mg, with standard breakfast, read-out: observed peak drug concentration (Cmax).
The mark [11] stands for this setting: Day 14, dosed alone, CVC 150 mg daily, read-out: steady-state AUC0-24 h,ss.
The mark [12] stands for this setting: Day 14, dosed alone, CVC 150 mg daily, read-out: steady-state Cmax,ss.
The mark [13] stands for this setting: NASH adults with liver fibrosis, one year.

Entries after “also recorded” stand apart in the source; their conditions may differ. Like-named read-outs stand apart in the source and are kept apart here.

`O=C(O)c1cc(F)c2nc(N3[C@@H]4CC[C@H]3C[C@@H](OCc3c(-c5ccccc5OC(F)(F)F)noc3C3CC3)C4)sc2c1` [TRX, 2-[(1R,3r,5S)-3-({5-cyclopropyl-3-[2-(trifluoromethoxy)phenyl]-1,2-oxazol-4-yl}methoxy)-8-azabicyclo [3.2.1]octan-8-yl]-4-fluoro-1,3-benzothiazole-6-carboxylic acid]: the “FGF19, biomarker of FXR target engagement in the enterocyte” value in data set [1] was “Dose-dependent increases”. For the same compound, in data set [2], the safety concerns result is “No safety concerns”. Moreover, the “decrease of AUC0-24 h of TRX on co-administration of CVC” value in data set [3] (Day 1, TRX 60 μg + CVC 150 mg) came out at 32%. Besides, the “decrease of Cmax of TRX on co-administration of CVC” value in data set [3] (Day 1, TRX 60 μg + CVC 150 mg) is listed as 33%. Also, in data set [3] (setting [8]), the “reduction of AUC0-24 h,ss of TRX when co-administered with CVC” value is 35%. Moreover, in data set [3] (setting [8]), the “reduction of Cmax,ss of TRX when co-administered with CVC” value was determined as 35%. Also, the AUC(0-t) in data set [3] (setting [9]) was 0.0179 µg·h/mL; in data set [3] (setting [11]) it was 0.0252 µg·h/mL. Also, the Cmax in data set [3] (setting [10]) was 0.00146 µg/mL; in data set [3] (setting [12]), 0.00177 µg/mL. For the same compound, in data set [3] (summary statement, TRX 60 μg + CVC 150 mg), the “reduction of TRX exposure by co-administration of CVC” value is given as 32-33%.

Take `CCCCOCCOc1ccc(-c2ccc3c(c2)/C=C(/C(=O)Nc2ccc([S@@+]([O-])Cc4cncn4CCC)cc2)CCCN3CC(C)C)cc1` [CVC, (S,E)-8-(4-(2-butoxyethoxy)phenyl)-1-(2-methylpropyl)-N-(4-(((1-propyl-1H-imidazol-5-yl)methyl)sulfinyl)phenyl)-1,2,3,4-tetrahydrobenzo[b]azocine-5-carboxamide]: the “microscopic findings indicative of toxicity” value in data set [4] is reported as “no microscopic findings indicative of toxicity”. Further, the tolerability entry in data set [5] is on record as “generally well-tolerated”. Besides, the “accumulation in plasma over the study duration” value in data set [3] (150 mg daily, Day 1 to Day 14) was “accumulated in plasma”. Moreover, the “impact of co-administration with TRX on Cmax and AUC0-24 h of CVC” value in data set [3] (CVC 150 mg + TRX 60 μg) is given as “no marked impact”. Also, the AUC(0-t) in data set [3] (setting [9]) amounted to 4.65 µg·h/mL; in data set [3] (setting [11]), 10.8 µg·h/mL. For the same compound, the Cmax in data set [3] (setting [10]) amounted to 0.45 µg/mL; in data set [3] (setting [12]), 0.778 µg/mL. Besides, the fibrosis entry in data set [6] (setting [13]) is “reduction of fibrosis”. In addition, in data set [6] (setting [13]), the “improvement of NAS” value is “no significant impact”. Further, the adverse effects result in data set [6] (patients) is on record as “can induce fatigue or diarrhea in a small part of the patients”.

On to `CC[C@H]1[C@@H](O)[C@@H]2[C@H](CC[C@]3(C)[C@@H]([C@H](C)CCC(=O)O)CC[C@@H]23)[C@@]2(C)CC[C@@H](O)C[C@@H]12` [OCA, obeticholic acid], for which the “adverse effects on long term administration” value in data set [7] is “pruritus; also recorded: increased LDL cholesterol”.
